# What was measured:
# Escherichia coli [1] = assay: Antibacterial activity against Escherichia coli ATCC 25922 assessed as inhibition in bacterial growth incubated for 20 to 24 hrs by CLSI based broth microdilution method; format: functional; settings: time 20-24 hrs
# Acinetobacter baumannii [2] = assay: Antibacterial activity against Acinetobacter baumannii ATCC 19606 assessed as inhibition in bacterial growth incubated for 20 to 24 hrs by CLSI based broth microdilution method; format: functional; settings: time 20-24 hrs
# Klebsiella pneumoniae [3] = assay: Antibacterial activity against Klebsiella pneumoniae ATCC BAA-1705 assessed as inhibition in bacterial growth incubated for 20 to 24 hrs by CLSI based broth microdilution method; format: functional; settings: time 20-24 hrs
# Pseudomonas aeruginosa [4] = assay: Antibacterial activity against Pseudomonas aeruginosa ATCC 27853 assessed as inhibition in bacterial growth incubated for 20 to 24 hrs by CLSI based broth microdilution method; format: functional; settings: time 20-24 hrs
# DNA gyrase = DNA gyrase (Escherichia coli, UniProt P0AES4+P0AES6); assay: Inhibition of Escherichia coli DNA gyrase incubated for 80 mins by Transcreener ADP2 FI assay; format: protein-complex assay
# hERG (KCNH2) [5] = target: T1, hERG (KCNH2) (Homo sapiens, UniProt Q12809); assay: Inhibition of hERG potassium channel expressed in CHO cells at 10 uM by electrophysiological patch clamp assay relative to control; format: toxicity, cell-based; settings: CHO cells expressing hERG
# Escherichia coli [6] = assay: Antibacterial activity against Escherichia coli K-12 BW25113 assessed as inhibition in bacterial growth incubated for 20 to 24 hrs by CLSI based broth microdilution method; format: functional; settings: Escherichia coli, K-12 BW25113, time 20-24 hrs; read-out: MIC
# Escherichia coli [7] = assay: Antibacterial activity against Escherichia coli K-12 BW25113 deltaTolC assessed as inhibition in bacterial growth incubated for 20 to 24 hrs by CLSI based broth microdilution method; format: functional; settings: time 20-24 hrs
# Escherichia coli [8] = assay: Antibacterial activity against Escherichia coli ATCC 35218 assessed as inhibition in bacterial growth incubated for 20 to 24 hrs by CLSI based broth microdilution method; format: functional; settings: Escherichia coli, ATCC 35218, time 20-24 hrs; read-out: MIC
# Escherichia coli [9] = assay: Antibacterial activity against Escherichia coli ATCC BAA-2340 assessed as inhibition in bacterial growth incubated for 20 to 24 hrs by CLSI based broth microdilution method; format: functional; settings: Escherichia coli, ATCC BAA-2340, time 20-24 hrs; read-out: MIC
# Acinetobacter baumannii [10] = assay: Antibacterial activity against Acinetobacter baumannii ATCC 51432 assessed as inhibition in bacterial growth incubated for 20 to 24 hrs by CLSI based broth microdilution method; format: functional; settings: Acinetobacter baumannii, ATCC 51432, time 20-24 hrs; read-out: MIC
# Acinetobacter baumannii [11] = assay: Antibacterial activity against Acinetobacter baumannii ATCC BAA-747 assessed as inhibition in bacterial growth incubated for 20 to 24 hrs by CLSI based broth microdilution method; format: functional; settings: Acinetobacter baumannii, ATCC BAA-747, time 20-24 hrs; read-out: MIC
# Klebsiella pneumoniae [12] = assay: Antibacterial activity against Klebsiella pneumoniae ATCC 10031 assessed as inhibition in bacterial growth incubated for 20 to 24 hrs by CLSI based broth microdilution method; format: functional; settings: time 20-24 hrs
# Klebsiella pneumoniae [13] = assay: Antibacterial activity against Klebsiella pneumoniae ATCC 700603 assessed as inhibition in bacterial growth incubated for 20 to 24 hrs by CLSI based broth microdilution method; format: functional; settings: Klebsiella pneumoniae, ATCC 700603, time 20-24 hrs; read-out: MIC
# Klebsiella pneumoniae [14] = assay: Antibacterial activity against Klebsiella pneumoniae ATCC BAA-2146 assessed as inhibition in bacterial growth incubated for 20 to 24 hrs by CLSI based broth microdilution method; format: functional; settings: Klebsiella pneumoniae, ATCC BAA-2146, time 20-24 hrs; read-out: MIC
# Pseudomonas aeruginosa [15] = assay: Antibacterial activity against Pseudomonas aeruginosa NCTC 13437 assessed as inhibition in bacterial growth incubated for 20 to 24 hrs by CLSI based broth microdilution method; format: functional; settings: Pseudomonas aeruginosa, NCTC 13437, time 20-24 hrs; read-out: MIC
# Pseudomonas aeruginosa [16] = assay: Antibacterial activity against Pseudomonas aeruginosa NCTC 11451 assessed as inhibition in bacterial growth incubated for 20 to 24 hrs by CLSI based broth microdilution method; format: functional; settings: Pseudomonas aeruginosa, NCTC 11451, time 20-24 hrs; read-out: MIC
# Staphylococcus aureus [17] = assay: Antibacterial activity against Staphylococcus aureus ATCC BAA-1556 assessed as inhibition in bacterial growth incubated for 20 to 24 hrs by CLSI based broth microdilution method; format: functional; settings: Staphylococcus aureus, ATCC BAA-1556, time 20-24 hrs; read-out: MIC
# Staphylococcus aureus [18] = assay: Antibacterial activity against Staphylococcus aureus ATCC 29213 assessed as inhibition in bacterial growth incubated for 20 to 24 hrs by CLSI based broth microdilution method; format: functional; settings: Staphylococcus aureus, ATCC 29213; time 20-24 hrs; read-out: MIC
# [19] = Inhibition of Escherichia coli topoisomerase 4 incubated for 120 mins by Transcreener ADP2 FI assay
# hERG (KCNH2) [20] = target: T1, hERG (KCNH2); assay: Inhibition of hERG potassium channel expressed in CHO cells at 1 uM by electrophysiological patch clamp assay relative to control; format: toxicity, cell-based; settings: CHO cells expressing hERG
# [21] = target: Voltage-gated inwardly rectifying potassium channel KCNH2 (Homo sapiens, UniProt Q12809); assay: (§1) Inhibition of hERG potassium channel expressed in CHO cells by electrophysiological patch clamp assay; format: toxicity, cell-based
# hERG (KCNH2) [22] = target: T1, hERG (KCNH2); assay: as §1; format: toxicity, cell-based; settings: human, CHO cells expressing hERG
# [23] = Stability in mouse plasma assessed as parent compound remaining after 5 hrs relative to control; format: ADME, cell-free; settings: read-out: Stability
# [24] = Stability in human plasma assessed as parent compound remaining after 5 hrs relative to control; format: ADME, cell-free; settings: read-out: Stability
# [25] = Stability in rat plasma; format: ADME, cell-free
# [26] = Stability in human plasma; format: ADME, cell-free
# [27] = Stability in mouse plasma; format: ADME, cell-free
# [28] = Stability in rat plasma assessed as parent compound remaining after 5 hrs relative to control; format: ADME, cell-free; settings: read-out: Stability
# T1 sequence (Q12809 whole entry): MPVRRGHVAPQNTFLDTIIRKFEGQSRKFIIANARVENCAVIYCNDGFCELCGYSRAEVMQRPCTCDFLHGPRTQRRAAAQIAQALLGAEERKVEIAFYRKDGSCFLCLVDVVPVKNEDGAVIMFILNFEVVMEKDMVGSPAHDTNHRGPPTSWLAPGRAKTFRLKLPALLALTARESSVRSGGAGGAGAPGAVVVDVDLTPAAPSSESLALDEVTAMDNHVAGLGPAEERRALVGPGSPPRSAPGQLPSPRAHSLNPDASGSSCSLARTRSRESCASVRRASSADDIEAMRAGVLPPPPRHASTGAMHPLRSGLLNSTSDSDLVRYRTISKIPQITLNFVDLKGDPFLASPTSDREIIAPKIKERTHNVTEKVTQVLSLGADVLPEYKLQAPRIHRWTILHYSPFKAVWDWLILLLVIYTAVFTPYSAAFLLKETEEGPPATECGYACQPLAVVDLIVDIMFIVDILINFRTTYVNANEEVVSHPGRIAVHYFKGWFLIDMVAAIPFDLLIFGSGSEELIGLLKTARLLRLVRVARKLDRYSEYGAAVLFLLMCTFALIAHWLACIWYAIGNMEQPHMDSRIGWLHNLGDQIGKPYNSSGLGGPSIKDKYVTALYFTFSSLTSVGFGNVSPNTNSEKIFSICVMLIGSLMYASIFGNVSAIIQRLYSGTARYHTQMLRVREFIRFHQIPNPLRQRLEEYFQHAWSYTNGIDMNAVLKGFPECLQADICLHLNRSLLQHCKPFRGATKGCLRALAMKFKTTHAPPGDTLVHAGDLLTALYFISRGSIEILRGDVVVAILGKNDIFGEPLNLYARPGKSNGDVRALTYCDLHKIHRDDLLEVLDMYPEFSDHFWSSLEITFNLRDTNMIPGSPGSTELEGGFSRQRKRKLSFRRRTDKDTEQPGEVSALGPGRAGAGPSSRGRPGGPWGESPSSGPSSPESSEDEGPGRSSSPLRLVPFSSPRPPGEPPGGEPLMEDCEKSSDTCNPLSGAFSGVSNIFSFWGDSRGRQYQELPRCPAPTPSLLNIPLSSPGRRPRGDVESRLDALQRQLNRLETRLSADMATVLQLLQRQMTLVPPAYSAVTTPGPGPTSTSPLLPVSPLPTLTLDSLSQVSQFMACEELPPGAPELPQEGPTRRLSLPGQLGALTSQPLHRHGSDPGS
# Voltage-gated inwardly rectifying potassium channel KCNH2, sequence (Q12809 whole entry): as above
Compound,MIC (Escherichia coli [1]),MIC (Acinetobacter baumannii [2]),MIC (Klebsiella pneumoniae [3]),MIC (Pseudomonas aeruginosa [4]),IC50 (DNA gyrase),inhibition at 10 µM (hERG (KCNH2) [5]),MIC (Escherichia coli [6]),MIC (Escherichia coli [7]),MIC (Escherichia coli [8]),MIC (Escherichia coli [9]),MIC (Acinetobacter baumannii [10]),MIC (Acinetobacter baumannii [11]),MIC (Klebsiella pneumoniae [12]),MIC (Klebsiella pneumoniae [13]),MIC (Klebsiella pneumoniae [14]),MIC (Pseudomonas aeruginosa [15]),MIC (Pseudomonas aeruginosa [16]),MIC (Staphylococcus aureus [17]),MIC (Staphylococcus aureus [18]),IC50 [19],also measured
O=C(CN1CCC1)Nc1cc(F)c2c(c1)CC(CNCCC1CN(c3cnc4c(n3)NC(=O)CO4)C(=O)O1)C2 (configuration not stated),0.125 µg/mL,8 µg/mL,1 µg/mL,0.25 µg/mL,14 nM,< 1%,≤ 0.06 µg/mL,≤ 0.06 µg/mL,0.125 µg/mL,0.125 µg/mL,8 µg/mL,0.125 µg/mL,≤ 0.06 µg/mL,1 µg/mL,4 µg/mL,1 µg/mL,1 µg/mL,2 µg/mL,1 µg/mL,6 nM,inhibition at 1 µM (hERG (KCNH2) [20]): < 1%; IC50 [21]: > 20000 nM; IC20 (hERG (KCNH2) [22]): > 10000 nM; remaining at 5 h [23]: 10%
CN(C)CC(=O)Nc1cc(F)c2c(c1)CC(CNCCC1CN(c3cnc4c(n3)NC(=O)CO4)C(=O)O1)C2 (configuration not stated),0.125 µg/mL,8 µg/mL,2 µg/mL,0.5 µg/mL,26 nM,< 1%,≤ 0.06 µg/mL,≤ 0.06 µg/mL,0.125 µg/mL,0.125 µg/mL,16 µg/mL,0.25 µg/mL,≤ 0.06 µg/mL,2 µg/mL,4 µg/mL,2 µg/mL,2 µg/mL,1 µg/mL,0.5 µg/mL,3 nM,remaining at 5 h [24]: 76%; Stability [25]: Unstable; inhibition at 1 µM (hERG (KCNH2) [20]): < 1%; IC50 [21]: > 20000 nM; IC20 (hERG (KCNH2) [22]): > 10000 nM; Stability [26]: Unstable; Stability [27]: Unstable; remaining at 5 h [28]: 99%

# — ChEMBL document CHEMBL5390317, “Novel Indane-Containing NBTIs with Potent Anti-Gram-Negative Activity and Minimal hERG Inhibition” (ACS Med Chem Lett, 2023)
